Experimental data published in ChEMBL document CHEMBL1144250, “3D QSAR studies on GSK-3 inhibition by aloisines” (Bioorg Med Chem Lett, 2005).

Target: Glycogen synthase kinase-3 (Homo sapiens, UniProt P49840+P49841)
Experiment: Inhibitory concentration against Glycogen synthase kinase-3
Assay type: protein assay

Which “Log IC50” value does the source give for `c1ccc(-c2cc3[nH]ccnc-3n2)cc1` here?
The value was -5.64.

For `Fc1ccc(-c2cc3[nH]ccnc-3n2)cc1`, which “Log IC50” value is on record?
Its value is -5.72.

For `Clc1ccc(-c2[nH]c3nccnc3c2CC2CCCCC2)cc1`, which “Log IC50” value is on record?
Its value is -5.1.

With `CCCCc1c(-c2ccc(Cl)cc2)[nH]c2nccnc12` as the molecule, how does the “Log IC50” value read?
Its value is -5.23.

With `Cc1ccc(-c2cc3[nH]ccnc-3n2)cc1` as the molecule, how does the “Log IC50” value read?
The value was -5.59.

`CCCc1c(-c2ccc(OC)cc2)[nH]c2nccnc12` was tested. Which “Log IC50” value did it give?
The value was -6.4.

For `COc1ccc(-c2[nH]c3nccnc3c2C(C)C)cc1`, which “Log IC50” value is on record?
The value was -6.3.

For `Clc1ccc(-c2[nH]c3nccnc3c2Cc2ccccc2)cc1`, which “Log IC50” value is on record?
The value was -5.17.

Which “Log IC50” value does the source give for `COc1cc(-c2cc3[nH]ccnc-3n2)cc(OC)c1OC` here?
The value was -4.7.

With `COc1ccc(-c2[nH]c3nccnc3c2C)cc1OC` as the molecule, how does the “Log IC50” value read?
Its value is -5.7.

How did the “Log IC50” value turn out when `Oc1ccc(-c2[nH]c3nccnc3c2CC2CC2)cc1` was run?
The value was -5.52.

Which “Log IC50” value does the source give for `COc1ccc(-c2[nH]c3nccnc3c2CC2CC2)cc1` here?
The value was -5.96.

For `CCCCCCCc1c(-c2ccc(OC)cc2)[nH]c2nccnc12`, which “Log IC50” value is on record?
Its value is -5.

Which “Log IC50” value does the source give for `C=CCc1c(-c2ccc(OC)cc2)[nH]c2nccnc12` here?
The value was -6.22.

With `COc1ccc(-c2[nH]c3nccnc3c2CCCCl)cc1` as the molecule, how does the “Log IC50” value read?
The value was -5.6.

With `COc1cc(OC)cc(-c2cc3[nH]ccnc-3n2)c1` as the molecule, how does the “Log IC50” value read?
The value was -4.22.

Which “Log IC50” value does the source give for `COc1ccc(-c2cc3[nH]ccnc-3n2)cc1` here?
The value was -5.96.

Which “Log IC50” value does the source give for `CCCc1c(-c2ccc(O)cc2)[nH]c2nccnc12` here?
Its value is -5.74.

With `FC(F)(F)c1ccc(-c2cc3[nH]ccnc-3n2)cc1` as the molecule, how does the “Log IC50” value read?
The value was -5.14.

Which “Log IC50” value does the source give for `Brc1ccc(-c2cc3[nH]ccnc-3n2)cc1` here?
The value was -5.22.

`CC(C)c1c(-c2ccc(Cl)cc2)[nH]c2nccnc12` was tested. Which “Log IC50” value did it give?
Its value is -6.12.

Which “Log IC50” value does the source give for `COc1ccc(-c2[nH]c3nccnc3c2C)cc1` here?
Its value is -6.34.

How did the “Log IC50” value turn out when `CN(C)c1ccc(-c2cc3[nH]ccnc-3n2)cc1` was run?
Its value is -4.92.

`c1ccc(Cc2c(-c3ccccc3)[nH]c3nccnc23)cc1` was tested. Which “Log IC50” value did it give?
The value was -6.

`Cc1c(-c2ccc(OS(=O)(=O)N(C)C)cc2)[nH]c2nccnc12` was tested. Which “Log IC50” value did it give?
Its value is -6.3.

With `Oc1ccccc1-c1cc2[nH]ccnc-2n1` as the molecule, how does the “Log IC50” value read?
Its value is -5.19.

For `COc1ccccc1-c1cc2[nH]ccnc-2n1`, which “Log IC50” value is on record?
The value was -5.48.

How did the “Log IC50” value turn out when `Cc1c(-c2ccc(O)cc2)[nH]c2nccnc12` was run?
The value was -6.28.

How did the “Log IC50” value turn out when `N#Cc1ccc(-c2cc3[nH]ccnc-3n2)cc1` was run?
The value was -5.32.

With `COc1ccc(-c2[nH]c3nccnc3c2CC2CCCCC2)cc1` as the molecule, how does the “Log IC50” value read?
Its value is -5.17.

With `Cc1c(-c2ccc(Cl)cc2)[nH]c2nccnc12` as the molecule, how does the “Log IC50” value read?
The value was -5.77.

With `COc1cccc(-c2cc3[nH]ccnc-3n2)c1` as the molecule, how does the “Log IC50” value read?
Its value is -5.5.

How did the “Log IC50” value turn out when `Oc1ccc(-c2cc3[nH]ccnc-3n2)cc1` was run?
The value was -5.92.

Which “Log IC50” value does the source give for `CCCCc1c(-c2ccc(OC)cc2)[nH]c2nccnc12` [ALOISINE] here?
Its value is -6.04.
